What was measured:
[1] = biological target: T1, RhlR (Pseudomonas aeruginosa, UniProt P54292); experiment: Whole-cell sensing system harboring plasmid pSB406 (rhlR, PrhlI::luxCDABE) in E. coli JM109, bioluminescence; assay type: cell-based; conditions: for response of the biosensing system at the highest concentration tested: pSB406, 1×10^−4 M; for Limit of Detection: concentration giving signal >= blank average plus three standard deviations; for Signal Intensity at 1 × 10^−4 M: pSB406 sensing cells, 2 h incubation at 37° C., racemic AHL, average ± one standard deviation
T1 construct: expressed in transfected cells; host or cells: Escherichia coli JM109 transformed with plasmid pSB406
T1 sequence (P54292 whole entry): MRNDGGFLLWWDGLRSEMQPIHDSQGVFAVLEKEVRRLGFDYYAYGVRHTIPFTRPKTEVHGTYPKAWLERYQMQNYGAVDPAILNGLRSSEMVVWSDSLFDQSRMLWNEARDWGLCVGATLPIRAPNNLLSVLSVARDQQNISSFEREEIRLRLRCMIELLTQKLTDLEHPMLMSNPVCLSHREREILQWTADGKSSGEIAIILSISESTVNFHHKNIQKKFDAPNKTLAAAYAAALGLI
Method: (§1) The bacterial strain Escherichia coli JM109 was purchased from Stratagene (Cedar Creek, Tex.). Plasmids pSB406 and pSB1075 were transformed respectively into competent E. coli JM109 cells using the standard protocol provided by the manufacturer. The transformed cells were grown at 37° C. overnight on LB agar plates containing 50 μg/mL ampicillin. Cells from a single colony were grown overnight at 37° C., 250 rpm in LB broth containing the same amount (w/v) of ampicillin. Glycerol stocks were prepared from those cell cultures and stored at −80° C. Fresh cell cultures were obtained from the glycerol stocks and grown in an orbital shaker at 37° C., 250 rpm until an optical density at 600 nm (OD600 nm) of 0.45-0.50 was reached.
(§2) Commercially available AHLs were dissolved in acetonitrile to obtain 1×10^−2 M stock solutions, which were serially diluted with distilled, deionized water. AHL standard solutions of concentrations ranging from 1×10^−4 to 1×10^−9 M were obtained. A 1% solution of acetonitrile in distilled, deionized water was used as blank. […] A total of 100 μL of each of these solutions was added in triplicate to culture tubes containing 1 mL of cell culture grown to an OD600 nm of 0.45-0.50. These culture tubes were then incubated in an orbital shaker at 37° C. at 250 rpm for 2 h. The induced bioluminescence was then measured using a microplate reader after transferring 200 μL aliquots in triplicate from each culture tube into a 96-well micro titer plate. The total measuring time/well was 0.20 s. The light intensity was expressed in relative light units (RLU). The results were plotted using the software GraphPad Prism 4 (GraphPad Software, Inc., San Diego, Calif.).
(§3) Two different whole-cell sensing systems were used, harboring either the pSB406 or pSB1075 plasmid, which are based on P. aeruginosa quorum sensing regulatory systems. The plasmids pSB406 and pSB 1075 incorporate the genes rhlR and lasR, respectively, and the reporter gene cassette luxCDABE under transcriptional control of the promoters of the genes rhlI and lasI (PrhlI and PlasI) respectively. Since the rhlI and lasI genes code for the synthases for the AHLs, they are not cloned into plasmids used for sensing. When AHLs are present in the environment of the sensing bacterial cells, they bind to the regulatory proteins RhlR and LasR. Subsequently, the regulatory protein-AHL complex binds to the corresponding promoter and activates gene transcription (see, e.g., FIG. 2A for a schematic representation of AHL-dependent regulation of quorum sensing in LuxR/LuxI-type systems, and FIG. 2B for a schematic representation of plasmids pSB1075 and pSB406). As a result, the luxCDABE cassette is expressed and a bioluminescent signal is produced. Further, the bioluminescence signal produced is directly proportional to the amount of the target AHL molecule present.
Characterization of the whole-cell biosensing systems for the detection of AHLs was performed by incubating the bacterial cells with standard N-acyl homoserine lactone compounds with acyl side chains of different lengths. […] [19] […] Both compounds could be detected at concentrations as low as 1×10^−9 M, with a dynamic range of 4 orders of magnitude. The limit of detection was defined as the analyte concentration that produced a signal equal to or higher than the average signal produced by the blank plus three standard deviations.

[2] = biological target: T2, LasR (Pseudomonas aeruginosa, UniProt P25084); experiment: Whole-cell sensing system harboring plasmid pSB1075 (lasR, PlasI::luxCDABE) in E. coli JM109, bioluminescence; assay type: cell-based; conditions: for Dynamic Range / Limit of Detection: pSB1075; for Limit of Detection: concentration giving signal >= blank average plus three standard deviations; for Signal Intensity at 1 × 10^−4 M: pSB1075 sensing cells, 2 h incubation at 37° C., racemic AHL, average ± one standard deviation (n = 3)
T2 construct: expressed in transfected cells; host or cells: Escherichia coli JM109 transformed with plasmid pSB1075
T2 sequence (P25084 whole entry): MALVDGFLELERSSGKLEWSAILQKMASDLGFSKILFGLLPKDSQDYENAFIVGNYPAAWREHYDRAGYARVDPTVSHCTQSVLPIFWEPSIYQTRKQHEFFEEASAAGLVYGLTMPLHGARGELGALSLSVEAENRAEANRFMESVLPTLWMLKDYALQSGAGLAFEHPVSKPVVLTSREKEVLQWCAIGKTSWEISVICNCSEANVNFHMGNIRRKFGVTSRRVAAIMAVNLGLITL
Method: as §1, §2, §3
The limit of detection was 1×10^−9 M for C14-HSL, as well as C12-HSL.

[3] = test system: V. harveyi strain BB170; experiment: AI-2 whole-cell sensing with bioluminescent sensor strain BB170; assay type: cell-based, Vibrio harveyi; conditions: 10^−7 M AI-2, after 2.5 hours of incubation with the BB170 sensor strain
Method: AB media used to grow V. harveyi strain BB170, a genetically modified strain that produces light in response to AI-2, was prepared as described previously. The BB170 sensor strain was grown overnight in AB medium at 30° C. and 175 rpm. The following day, overnight grown BB170 culture was diluted in AB medium to obtain a final O.D.600 nm of 0.010.
Saliva samples were collected and processed as described hereinabove. The available stock of AI-2 was 3.9 mM. AI-2 standard solutions with concentrations ranging from 2.5×10^−4M to 10^−7M were then prepared by using distilled, deionized water. 10 μL of AI-2 standard solution was incubated with 90 μL of BB170 bacterial culture at O.D.600 nm 0.010, in triplicate on a microtitre plate. 10 μL water incubated with 90 μL of BB170 served as a blank. An orbital shaker set at 30° C. and 175 rpm was used for incubation. Bioluminescence was then measured over a period of time. In order to evaluate the effect of saliva matrix, saliva samples were also spiked with a particular concentration of AI-2 and then incubated with the BB170 strain. […]
Vibrio harveyi bioluminescent strain BB170 was used for the detection of AI-2 and was modified from the wild type V. harveyi so that it induces lux expression exclusively in response to AI-2. AI-2 is detected by BB170 when it binds to the periplasmic protein LuxP. […]

Row | Molecule | L-isomer versus DL-racemic mixture: limit of detection, dynamic range and maximum signal intensity of the dose-response curves ([1]; pSB406) | Dynamic Range [2] | Limit of Detection [2] | Signal Intensity at 1 × 10^−4 M [2] | Dynamic Range ([1]; pSB406) | dynamic range ([1]; pSB406) | response of the biosensing system at the highest concentration tested [1] | Limit of Detection ([1]; pSB406) | Signal Intensity at 1 × 10^−4 M [1] | response of the whole-cell sensor at the highest concentration tested ([2]; pSB1075, 1×10^−4 M) | Average Signal [3]
1 | CCCC(=O)CC(=O)N[C@H]1CCOC1=O [3-oxo-C6-HSL, N-(3-oxo)-hexanoyl homoserine lactone] | no significant differences |  |  |  |  |  |  |  |  |  | 
2 | CCCC(=O)NC1CCOC1=O (centres unmarked) [C4-HSL, N-butyryl homoserine lactone] |  | 100 to 100000 nM | 100 nM | 1.87 ± 0.06 ×10^5, RLU | 1 to 100000 nM | 4 orders of magnitude | induced the maximum response | 1 nM | 19.99 ± 0.00 ×10^5, RLU |  | 
3 | CCCCCC(=O)NC1CCOC1=O (centres unmarked) [C6-HSL, N-hexanoyl homoserine lactone] |  |  | >100000 nM | 2.53 ± 1.15 ×10^5, RLU | 1 to 100000 nM | 4 orders of magnitude | induced the maximum response | 1 nM | 19.64 ± 0.25 ×10^5, RLU |  | 
4 | CCCCCCCC(=O)NC1CCOC1=O (centres unmarked) [C8-HSL, N-octanoyl homoserine lactone] |  | 10000 to 100000 nM | 10000 nM | 7.94 ± 0.70 ×10^5, RLU | 1 to 100000 nM |  |  | 1 nM | 6.87 ± 0.23 ×10^5, RLU |  | 
5 | CCCCCCCCCCCC(=O)NC1CCOC1=O (centres unmarked) [C12-HSL, N-dodecanoyl homoserine lactone] |  | 1 to 10000 nM | 1 nM | 8.99 ± 0.17 ×10^5, RLU | 10 to 10000 nM |  |  | 10 nM | 8.40 ± 0.55 ×10^5, RLU |  | 
6 | CCCCCCCCCCCCCC(=O)NC1CCOC1=O (centres unmarked) [C14-HSL, N-tetradecanoyl homoserine lactone] |  | 1 to 100000 nM | 1 nM | 11.74 ± 0.09 ×10^5, RLU |  |  |  | >10000 nM | 4.22 ± 0.22 ×10^5, RLU | induced the maximum response | 
7 | Autoinducer-2 [AI-2] |  |  |  |  |  |  |  |  |  |  | 324218 RLU

— patent publication US8663927B2, “Systems and methods for diagnosis and monitoring of bacteria-related conditions” (priority 2007, dated 2014)
